Source: the supplement of paper PMC10307832

Key:
Experiment in all cases: relative viability (nuclei count vs DMSO), 5 days (fraction); higher = more cells survive
[1] = compound: CC1=CC=C(C=C1)C(=O)CN2C3=C(CCCC3)SC2=N [Pifithrin_alpha] + O=C(c1cc(Cc2n[nH]c(=O)c3ccccc23)ccc1F)N1CCN(C(=O)C2CC2)CC1 [Olaparib] (partner 8 µM)
How it was run: (§1)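 Lung cancer cell lines, seeded in 1536-well plates, were treated the following day by pin tool with a single drug or with five library-drug doses (not always all listed) in √10 steps on top of a fixed anchor-drug dose. Cells were fixed and nuclei stained in one step after 5 days, and nuclei were counted. Relative viability is the nuclei count for treated wells divided by that for vehicle wells, reported as medians of duplicate plates.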

Axitinib + Foretinib = compound: CNC(=O)c1ccccc1Sc1ccc2c(/C=C/c3ccccn3)n[nH]c2c1 [Axitinib] + COc1cc2c(Oc3ccc(NC(=O)C4(C(=O)Nc5ccc(F)cc5)CC4)cc3F)ccnc2cc1OCCCN1CCOCC1 [Foretinib] (partner 0.25 µM)
How it was run: as §1

Axitinib + Palbociclib = compound: CNC(=O)c1ccccc1Sc1ccc2c(/C=C/c3ccccn3)n[nH]c2c1 [Axitinib] + CC(=O)c1c(C)c2cnc(Nc3ccc(N4CCNCC4)cn3)nc2n(C2CCCC2)c1=O [Palbociclib] (partner 0.5 µM)
How it was run: as §1

Bemcentinib + Decitabine = compound: Nc1nc(Nc2ccc3c(c2)CC[C@@H](N2CCCC2)CC3)nn1-c1cc2c(nn1)-c1ccccc1CCC2 [Bemcentinib] + Nc1ncn([C@H]2C[C@H](O)[C@@H](CO)O2)c(=O)n1 [Decitabine] (partner 2 µM)
How it was run: as §1

Row | Cell Line | relative viability ([1]; first compound 1 µM) | relative viability ([1]; first compound 3.162 µM) | relative viability ([1]; first compound 10 µM) | relative viability ([1]; first compound 31.62 µM) | relative viability ([1]; first compound 100 µM) | relative viability (Axitinib + Foretinib; first compound 0.005 µM) | relative viability (Axitinib + Foretinib; first compound 0.01581 µM) | relative viability (Axitinib + Foretinib; first compound 0.05 µM) | relative viability (Axitinib + Foretinib; first compound 0.1581 µM) | relative viability (Axitinib + Foretinib; first compound 0.5 µM) | relative viability (Axitinib + Palbociclib; first compound 0.005 µM) | relative viability (Axitinib + Palbociclib; first compound 0.01581 µM) | relative viability (Axitinib + Palbociclib; first compound 0.05 µM) | relative viability (Axitinib + Palbociclib; first compound 0.1581 µM) | relative viability (Axitinib + Palbociclib; first compound 0.5 µM) | relative viability (Bemcentinib + Decitabine; first compound 0.04 µM) | relative viability (Bemcentinib + Decitabine; first compound 0.1265 µM) | relative viability (Bemcentinib + Decitabine; first compound 0.4 µM) | relative viability (Bemcentinib + Decitabine; first compound 1.265 µM) | relative viability (Bemcentinib + Decitabine; first compound 4 µM)
1 | LXF-289 | 1.16 | 0.994 | 1.1 | 0.717 | 1.16 | 1.07 | 0.902 | 0.913 | 0.983 | 1.05 | 0.597 | 0.539 | 0.603 | 0.583 | 0.657 | 0.431 | 0.323 | 0.417 | 0.398 | 0.364
2 | NCI-H23 | 0.248 | 0.249 | 0.223 | 0.191 | 0.177 | 1.06 | 0.948 | 1.06 | 0.955 | 1.02 | 0.458 | 0.512 | 0.616 | 0.483 | 0.559 | 0.305 | 0.302 | 0.297 | 0.31 | 0.328
3 | NCI-H322M | 0.74 | 0.715 | 0.723 | 0.468 | 0.559 | 1.18 | 0.926 | 0.922 | 0.859 | 1.12 | 0.454 | 0.442 | 0.491 | 0.427 | 0.514 | 0.686 | 0.731 | 0.716 | 0.841 | 0.704
4 | NCI-H358 | 0.628 | 0.559 | 0.459 | 0.252 | 0.555 | 0.701 | 0.738 | 0.859 | 0.695 | 0.925 | 0.17 | 0.159 | 0.143 | 0.129 | 0.13 | 0.202 | 0.209 | 0.211 | 0.212 | 0.263
5 | NCI-H441 | 0.608 | 0.673 | 0.468 | – | 0.542 | 0.989 | 0.93 | 0.872 | 1.13 | 0.95 | 0.239 | 0.225 | 0.222 | 0.204 | 0.25 | 0.208 | 0.276 | 0.218 | 0.236 | 0.255
6 | NCI-H460 | 0.456 | 0.343 | 0.257 | – | 0.21 | 1.01 | 0.917 | 0.974 | 0.995 | 1.05 | 0.154 | 0.211 | 0.143 | 0.145 | 0.319 | 0.479 | 0.595 | 0.605 | 0.483 | 0.5
7 | NCI-H520 | 0.319 | 0.286 | 0.317 | 0.301 | 0.292 | 0.808 | 0.64 | 0.706 | – | 0.829 | 0.242 | 0.19 | 0.205 | 0.194 | 0.187 | 0.515 | 0.593 | 0.511 | 0.499 | 0.512
8 | NCI-H647 | 0.531 | 0.44 | 0.531 | 0.217 | 0.492 | 1.26 | 1.16 | 1.03 | 1.23 | 1.56 | 0.554 | 0.375 | 0.475 | 0.395 | 0.421 | 0.386 | 0.296 | 0.494 | 0.368 | 0.454
9 | NCI-H661 | 0.777 | 0.882 | 0.656 | 0.601 | 0.669 | 1.06 | 1.01 | 1.09 | 1.04 | 1.12 | 0.412 | 0.392 | 0.424 | 0.405 | 0.428 | 0.558 | 0.654 | 0.547 | 0.57 | 0.557
10 | NCI-H727 | 0.71 | 0.843 | 0.68 | 0.583 | 0.597 | 1.23 | 0.837 | 0.896 | 0.982 | 1.15 | 0.597 | 0.66 | 0.596 | 0.673 | 0.613 | 0.832 | 0.932 | 0.807 | 0.717 | 0.891
11 | NCI-H838 | 0.723 | 0.505 | 0.469 | 0.363 | 0.534 | 1.06 | 1.11 | 1.12 | 0.906 | 1.13 | 0.246 | 0.229 | 0.233 | 0.226 | 0.23 | 0.483 | 0.484 | 0.497 | 0.47 | 0.517
12 | NCI-H1355 | 0.653 | 0.52 | 0.413 | 0.442 | 0.345 | 1.03 | 0.945 | 1.04 | 0.956 | 1.1 | 0.415 | 0.443 | 0.426 | 0.414 | 0.409 | 0.341 | 0.35 | 0.376 | 0.347 | 0.431
13 | NCI-H1395 | – | 0.443 | 0.442 | – | 0.432 | 0.97 | 1.03 | 0.982 | 0.939 | 0.918 | 0.594 | 0.509 | 0.507 | 0.579 | 0.711 | – | 0.683 | 0.757 | 0.737 | 0.745
14 | NCI-H1437 | 0.681 | 0.604 | 0.521 | 0.383 | 0.277 | 1.3 | 1.22 | 1.28 | 1.13 | 1.25 | 0.353 | 0.283 | 0.346 | 0.307 | 0.313 | 0.58 | 0.602 | 0.558 | 0.584 | 0.571
15 | NCI-H1650 | 0.596 | 1.09 | 0.373 | 0.298 | 0.408 | 1.32 | 1.12 | 1.24 | 1.19 | 1.31 | 0.423 | 0.322 | 0.412 | 0.313 | 0.486 | 0.428 | 0.416 | 0.389 | 0.517 | 0.417
16 | NCI-H1651 | 0.184 | 0.191 | 0.173 | 0.143 | 0.194 | 0.879 | 0.896 | 0.876 | 0.878 | 0.859 | 0.597 | 0.542 | 0.471 | 0.514 | 0.544 | 0.588 | 0.623 | 0.678 | 0.491 | 0.584
17 | NCI-H1666 | 0.72 | 0.673 | 0.657 | 0.641 | 0.648 | 1 | 1.03 | 0.995 | 1.02 | 0.935 | 0.689 | 0.606 | 0.653 | 0.631 | 0.657 | 0.618 | 0.872 | 0.722 | 0.592 | 0.632
18 | NCI-H1734 | 0.588 | 0.502 | 0.529 | 0.328 | 0.575 | 0.928 | 0.853 | 0.923 | 0.944 | 1.08 | 0.35 | 0.373 | 0.345 | 0.334 | 0.425 | 0.401 | 0.533 | 0.595 | 0.472 | 0.447
19 | NCI-H1755 | 0.789 | 0.747 | 0.734 | 0.544 | 0.73 | 0.946 | 0.931 | 0.788 | 0.888 | 0.935 | 0.472 | 0.423 | 0.462 | 0.512 | 0.42 | 0.724 | 0.671 | 0.726 | 0.674 | 0.718
20 | NCI-H1793 | 1.01 | 0.757 | 0.798 | 0.365 | 0.649 | 0.851 | 0.597 | 0.764 | 0.65 | 0.687 | 0.285 | 0.259 | 0.369 | 0.285 | 0.346 | 0.475 | 0.495 | 0.5 | 0.549 | 0.586
21 | NCI-H1915 | 0.245 | 0.267 | 0.249 | – | 0.276 | 1.07 | 1.11 | 1.08 | 1.08 | 1.13 | 0.526 | 0.534 | 0.512 | 0.524 | 0.566 | 0.24 | 0.25 | 0.255 | 0.252 | 0.257
22 | NCI-H1944 | 0.378 | 0.337 | 0.344 | 0.25 | 0.28 | 0.892 | 0.881 | 0.978 | 0.882 | 1 | 0.365 | 0.342 | 0.328 | 0.318 | 0.307 | 0.413 | 0.39 | 0.443 | 0.443 | 0.417
23 | NCI-H1975 | 0.676 | 0.437 | 0.374 | 0.467 | 0.354 | 1.05 | 0.944 | 0.938 | 0.997 | 1.03 | 0.694 | 0.586 | 0.507 | 0.541 | 0.672 | 0.336 | 0.384 | 0.394 | 0.374 | 0.459
24 | NCI-H1993 | 1.06 | 1.11 | 0.779 | 0.697 | 0.866 | 0.771 | 0.731 | 0.823 | 0.956 | 0.845 | 0.604 | 0.68 | 0.678 | 0.583 | 0.677 | 0.541 | 0.49 | 0.627 | 0.577 | 0.68
25 | NCI-H2009 | 0.701 | 0.903 | 0.594 | 0.286 | 0.614 | 1.21 | 1.23 | 1.23 | 1.27 | 1.08 | 0.257 | 0.295 | 0.203 | 0.233 | 0.255 | 0.404 | 0.353 | 0.492 | 0.399 | 0.434
26 | NCI-H2023 | 0.514 | 0.455 | 0.318 | 0.301 | 0.244 | 0.906 | 0.943 | 0.911 | 0.923 | 0.923 | 0.393 | 0.447 | 0.363 | 0.34 | 0.412 | 0.204 | 0.264 | 0.233 | 0.282 | 0.224
27 | NCI-H2085 | 0.807 | 0.778 | 0.796 | 0.523 | 0.685 | 0.979 | 1.05 | 0.884 | 0.9 | 1.07 | 0.495 | 0.482 | 0.454 | 0.487 | 0.452 | 0.539 | 0.583 | 0.498 | 0.551 | 0.554
